In brackets after ≈: the same amount, converted by molar mass.
Assays:
cancer cells = assay: MTT cytotoxic assay of esterification products (Cytotoxicity activity); assay type: cell-based, human
Procedure, shortened: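 Cytotoxicity was read by MTT (Carmichael method, modified), with cells seeded 24 h ahead of treatment. Sixteen human cancer lines spanning bone, lung, bladder, ovary, colon, pancreas, prostate, skin, mouth, kidney, breast, liver, brain, leukemia and cervix were used. Test samples were acyl chloride esterification products of triterpenes, as mixtures or HPLC-purified compounds.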

WI38 = assay: MTT assay, normal human lung fibroblast (WI38); assay type: cell-based
Protocol: Method: A. Cells • -WI38 is a Normal Lung fibroblast. Cells were grown in MEM medium supplemented with 10% FCS, antibiotics and glutamine. 20 K cells were seeded per well (96-welled plate) for one day before drug-treatment • -ES2 is an Ovary Clear cells carcinoma. Cells were grown in RPMI-1640 medium supplemented with 10% FCS, antibiotics and glutamine. 10 K cells were seeded per well (96-welled plate) for one day before drug-treatment.
B. Drug treatment: • -Drug: Tig-S. stored as 1000x stock solution in DMSO. • -Drug concentration used: from 0.15 - 20 ug/ml. • -Drug-treatment was carried out for 2 days (ES2) or 6 days (WI38). For the 6 days incubation, cells were fed with fresh medium (with drug) on day 3 and 5.
C. At the end of the drug-treatment, cytotoxic test was performed with MTT assay.

Y79 (retinoblastoma) = assay: Inhibition of eye cancer cells Y79 (retinoblastoma), MTT; assay type: cell-based, human; details: 2 days
Protocol: Cells: Human Eye cancer cells Y79 (retinoblastoma) are cultured in RPMI1640 medium supplemented with 20% FCS, glutamine and antibiotics.
Starting cells concentration: 400 K per ml in a 24-well plate.
Drug: Tig-S and Tig-R (100× stock solution in 10%DMSO-90% RPMI-1640).
Drug-treatment: Cells were cultured with or without drug (DMSO control) for 2 days. After Drug-treatment, the quantity of live cells is determined with MTT assay*. With this method, the percentage of cell growth with drugs was determined by comparing to those of no-drug (DMSO) control.
MTT assay. To measure the amount of live cells, MTT (3-[4,5-Dimethylthiazol-2-yl]-2,5-diphenyl-tetrazolium bromide) (0.5 mg/ml) was added to cultures and incubated for an hour. Cells were then collected by centrifugation. The formation of formazan (proportion to live cells activity) in the cells was dissolved with DMSO and the O.D. at 490 nm was measured by an ELISA reader. The MTT level of cells before drug-treatment (T0) and after the drug-treatment (TD) was measured. The % cell-growth (%G) is calculated as: %G = (TD-T0) / (TC-T0) × 100 where TC or TD represent O.D. readings of control or drug-treated cells.
When T0 > TD, then the negative growth (cytotoxicity) is expressed as - % of the control and is calculated as: - %G = (TD-T0) / T0) × 100.

Erythrocytes (RBC) = assay: The haemolytic assay
Protocol: Erythrocytes (RBC) were isolated from human blood (EDTA whole blood, collected randomly). 50 ul of the 10% RBC suspension (in PBS) was added to 2 ml of sample solutions (concentration range from 0.1 ug/ml to 400 ug/ml) in PBS. The mixture was vortexed briefly and sat for 60 min at room temperature. The mixture was spun at 3 K for 10 min and the relative amounts of lysed hemoglobin in the supernatant were measured at 540 nm.

[1] = esterification products isolated with HPLC, graded strong / moderate / weak

Compound | Cytotoxicity activity (cancer cells; [1]) | IC50 in normal human fibroblast cells (WI38) (WI38; MTT) [µg/mL] | IC50, eye cancer Y79 retinoblastoma (Y79 (retinoblastoma)) [µg/mL] | hemolytic activity (Erythrocytes (RBC); in words, no concentration given) | hemolytic activity (Erythrocytes (RBC); up to 20 ug/ml) | Cytotoxicity activity (cancer cells; esterification products of E4A—Tig—N with senecioyl chloride) | IC50, WI38 cells (WI38; 6 days drug treatment, MTT) [µg/mL] | % of the control cell growth, WI38 (WI38; at 10 ug/ml) | MTT OD as % of the original value, WI38 (WI38; at 20 ug/ml) | cell loss or death, WI38 (WI38; at 20 ug/ml) | cells died, WI38 (WI38; with 10 ug/ml) [%]
24,28-O-Tigloyl-3β,16α, 21β, 22a, 24β, 28-hexahydroxyolean-12-ene [Tig-R] | strong | 10 to 15 | 7.5 | no hemolytic activity | do not have hemolytic activity |  |  |  |  |  | 
CC=C(C)C(=O)OCC1(C)C(O)CCC2(C)C1CCC1(C)C2CC=C2C3CC(C)(C)C(O)C(O)C3(CO)C(O)CC21C (centres unmarked) [Tig-N] | moderate |  |  |  | do not have hemolytic activity | moderate |  |  |  |  | 
CC=C(C)C(=O)OCC1(C)C(O)CCC2(C)C1CCC1(C)C2CC=C2C3CC(C)(C)C(OC(=O)C(C)=CC)C(O)C3(CO)C(O)CC21C (centres unmarked) [Tig-S] |  |  | 0.1 (≈ 0.149 µM) |  |  |  | 1.5 (≈ 2.24 µM) | about 55% | about 90% | about 10% | 10

From patent US20230340012A1, “NATURAL AND SYNTHETIC COMPOUNDS FOR TREATING CANCER AND OTHER DISEASES” (PACIFIC ARROW LIMITED, priority 2009, published 2023)
